The assay deals with canine liver gene expression. The assay can be described thus: Canine array gene expression profile of liver from dog dosed with erythromycin estolate. The class given is in vivo. To be noted: Canis lupus familiaris, 240 h, 10 days. As for the experimental part: For liver or kidney, about 0.15-0.20 g of tissue was weighed and placed in a 15 ml conical tube. All tissue were kept on dry ice when other samples were being weighed.
About 3.8 ml of RLT buffer was added to the tube containing the sample. The RLT buffer® from Qiagen can be prepared beforehand by adding 10 μl betamercaptoethanol to each 1.0 ml of lysis buffer needed. The tissue was homogenized using the rotor-stator homogenizer for 45 seconds. A IKA Ultra Turrax T25 homogenizer set at speed 4 with the S25N-10G dispersing element can be used. Alternatively, a Virtishear Cyclone 750W rotor/stator homogenizer (Virtis item #278077) can be used with the 7 mm microfine sawtooth shaft and generator (195 mm long with a processing range of 0.25 ml to 20 ml, item #372718). After homogenization, samples were stored on ice until all samples were homogenized. To clean the homogenizing tip between samples, the tip was first run for a few seconds in 95% ethanol and then rinsed by squirting with fresh 95% ethanol. This process was repeated with nanopure water.
The tissue lysate was centrifuged at room temperature for 10 minutes at 3700-3800 rpm in a Beckman GS-6 (or equivalent) centrifuge to remove nuclei thus reducing DNA contamination.
The supernatant of the lysate was transferred to a clean 15 ml conical tubes containing an equal volume of 70% EtOH in DEPC treated H2O, being careful not to include any of the pellet or fatty layer and mixed. About 3.8 ml of sample was added to the RNeasy spin column placed in a 15 ml centrifuge tube and centrifuged at 3000×g (3690-3710 rpm, Beckman GS-6) for 5 min. The flow-through was discarded. The remaining sample was added to the appropriate column and spun at 3000×g for 5 minutes and the flow-through was discarded.
About 4.0 ml of Buffer RW1 (Qiagen®) was added to the column and spun as before then about 2.5 ml of buffer RPE (Qiagen®) was added to column and spun at 3000×g (3690-3710 rpm, Beckman GS-6) for 2 minutes. In this example, RPE buffer was supplied as a concentrate so 4 volumes of 95% EtOH was added before use. For the midi kit, about 220 ml of 95% EtOH would be added to 55 ml of RPE. Another 2.5 ml of buffer RPE was added and spun for 5 minutes to also dry out column. The column, including the tip, should be dry for the next elution step.
For elution, the column that has the RNA bound to a clean 15 ml tube was transferred and 200 μl of RNase-free water was added to the column, allowed to sit for 1 minute, and spun for 3 minutes at 3000×g (3690-3710 rpm, Beckman GS6). This step was repeated into the same tube but with 200 μl RNase-free water.
Liver and kidney organs were isolated from a dog which was dosed with erythromycin esolate at 100 mg/kg/day for 2 or 10 days. The dog was euthanized 16 hours after the last dosage and the organs were harvested according to standard sterile procedure. RNA was isolated from the kidney and liver as detailed in Example 1. cDNA was made from the RNA and used as probes as detailed in the Examples above.

Consider one molecule from US7091033B2, “Array of toxicologically relevant canine genes and uses thereof” (Phase-1 Molecular Toxicology, Inc., priority 2000, dated 2006).

Like-named read-outs stand apart in the source and are kept apart here.

In the case of `CCC(=O)O[C@H]1[C@H](O[C@@H]2[C@@H](C)[C@H](O[C@H]3C[C@@](C)(OC)[C@@H](O)[C@H](C)O3)[C@@H](C)C(=O)O[C@H](CC)[C@@](C)(O)[C@H](O)[C@@H](C)C(=O)[C@H](C)C[C@@]2(C)O)O[C@H](C)C[C@@H]1N(C)C` [erythromycin estolate], the fold induction at 100 mg/kg was determined as 1.5 (read-out: Alkaline phosphatase fold induction); 1.5 (read-out: Angiopoietin-related protein 3 (ANGPTL3) fold induction); 1.2 (read-out: BR-cadherin fold induction); 1.5 (read-out: BRCA1 fold induction); 1.5 (read-out: Beta-glucuronidase fold induction); 1.1 (read-out: Canis familiaris mitochondrion, complete genome fold induction). The fold induction at 100 mg/kg is 1.4 (read-out: Catalase fold induction); 1.2 (read-out: Caveolin-2 fold induction); 1.1 (read-out: Cubilin fold induction); 1.6 (read-out: Cytochrome c oxidase subunit II fold induction); 1 (read-out: Cytochrome c oxidase subunit VIIaL fold induction); 1.3 (read-out: c-erb B-2 fold induction).
